Laboratory results taken from ChEMBL document CHEMBL4507274 (2021).

What was measured:
[1] = molecular target: Tyrosine-protein kinase Fgr (Homo sapiens) (UniProt P09769); test: Fgr (h) Upstate kinase activity assay; settings: Compound concentration 10.0 uM
[2] = molecular target: CDK7/Cyclin H/MNAT1 (Homo sapiens) (UniProt P51946+P50613+P51948); test: CDK7/ cyclin H/ MATI (h) Upstate kinase activity assay; format: protein-complex assay; settings: Compound concentration 10.0 uM
U-937 = test: Lymphoma U937 cell line MDS Pharma Services Proliferation Assay; format: functional, cell-based, Homo sapiens
A498 = test: Kidney A-498 cell line MDS Pharma Services Proliferation Assay; format: functional, cell-based, Homo sapiens
[3] = molecular target: Macrophage colony-stimulating factor 1 receptor (Homo sapiens) (UniProt P07333); test: Fms (h) Upstate kinase activity assay; settings: Compound concentration 10.0 uM
[4] = molecular target: Tyrosine-protein kinase ABL1 (Homo sapiens) (UniProt P00519); test: Abl (h) Upstate kinase activity assay; settings: Compound concentration 10.0 uM
[5] = molecular target: T1, Serine/threonine-protein kinase Chk1 (Homo sapiens) (UniProt O14757); test: CHK1 (h) Upstate kinase activity assay; settings: Compound concentration 10.0 uM
T1 sequence (whole entry): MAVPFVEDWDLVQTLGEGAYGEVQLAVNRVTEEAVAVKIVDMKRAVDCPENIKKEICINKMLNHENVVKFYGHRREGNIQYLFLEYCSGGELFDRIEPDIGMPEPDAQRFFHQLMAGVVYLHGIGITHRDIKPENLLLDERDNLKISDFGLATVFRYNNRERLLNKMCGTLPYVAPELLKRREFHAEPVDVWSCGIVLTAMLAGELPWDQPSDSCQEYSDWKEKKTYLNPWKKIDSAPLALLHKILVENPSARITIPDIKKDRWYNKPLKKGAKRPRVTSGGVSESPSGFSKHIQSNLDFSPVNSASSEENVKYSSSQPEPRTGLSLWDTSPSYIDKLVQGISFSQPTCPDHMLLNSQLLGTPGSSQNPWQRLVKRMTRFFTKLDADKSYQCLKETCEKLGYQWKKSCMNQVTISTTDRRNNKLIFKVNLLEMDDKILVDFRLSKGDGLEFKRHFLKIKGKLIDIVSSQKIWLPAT

[6] = molecular target: Protein kinase C beta type (Homo sapiens) (UniProt P05771); test: PKCBI (h) Upstate kinase activity assay; settings: Compound concentration 10.0 uM
[7] = Lymphoma1-1331-IJ- JAl cell line MDS Pharma Services Proliferation Assay; format: functional, cell-based, Homo sapiens
Saccharomyces cerevisiae = test: CK1 (y) Upstate kinase activity assay; settings: Compound concentration 10.0 uM
ACHN = test: Kidney ACHN cell line MDS Pharma Services Proliferation Assay; format: functional, cell-based, Homo sapiens
Rattus norvegicus = species on record: Rattus norvegicus; settings: Compound concentration 10.0 uM
[8] = molecular target: Casein kinase II subunit alpha (Homo sapiens) (UniProt P68400); test: CK2 (h) Upstate kinase activity assay; settings: Compound concentration 10.0 uM
Hep 3B2 = test: Liver Hep 3B cell line MDS Pharma Services Proliferation Assay; format: functional, cell-based, Homo sapiens
[9] = molecular target: T2, Serine/threonine-protein kinase Sgk1 (Homo sapiens) (UniProt O00141); test: SGK (h) Upstate kinase activity assay; settings: Compound concentration 10.0 uM
T2 sequence (whole entry): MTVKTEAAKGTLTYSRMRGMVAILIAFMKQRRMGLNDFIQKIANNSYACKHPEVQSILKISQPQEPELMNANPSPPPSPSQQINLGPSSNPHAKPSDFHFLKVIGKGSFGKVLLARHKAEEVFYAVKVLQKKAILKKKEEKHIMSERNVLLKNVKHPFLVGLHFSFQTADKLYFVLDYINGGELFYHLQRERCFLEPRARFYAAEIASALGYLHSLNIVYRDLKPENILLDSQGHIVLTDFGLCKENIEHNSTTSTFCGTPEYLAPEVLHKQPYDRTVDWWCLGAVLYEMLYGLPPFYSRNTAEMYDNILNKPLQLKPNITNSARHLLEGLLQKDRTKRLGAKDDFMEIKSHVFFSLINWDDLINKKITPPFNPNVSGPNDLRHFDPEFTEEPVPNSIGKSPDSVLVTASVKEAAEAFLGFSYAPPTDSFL

[10] = molecular target: T3, Mitogen-activated protein kinase 12 (Homo sapiens) (UniProt P53778); test: SAPK3 (h) Upstate kinase activity assay; settings: Compound concentration 10.0 uM
T3 sequence (whole entry): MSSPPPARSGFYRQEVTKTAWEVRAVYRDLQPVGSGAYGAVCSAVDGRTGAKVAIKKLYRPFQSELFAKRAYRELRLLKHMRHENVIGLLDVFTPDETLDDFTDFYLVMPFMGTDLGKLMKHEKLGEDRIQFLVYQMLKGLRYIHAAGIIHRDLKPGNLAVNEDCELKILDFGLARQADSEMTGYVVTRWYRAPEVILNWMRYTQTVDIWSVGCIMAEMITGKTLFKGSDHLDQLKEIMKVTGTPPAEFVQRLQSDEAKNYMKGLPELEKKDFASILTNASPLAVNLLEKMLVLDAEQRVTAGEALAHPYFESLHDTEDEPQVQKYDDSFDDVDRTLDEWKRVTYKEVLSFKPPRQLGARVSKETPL

[11] = molecular target: Serine/threonine-protein kinase PAK 2 (Homo sapiens) (UniProt Q13177); test: PAK2 (h) Upstate kinase activity assay; settings: Compound concentration 10.0 uM
[12] = system: Tyrosine-protein kinase ABL1 (Homo sapiens), P00519 [T315I]; test: Abl(T315I) (h) Upstate kinase activity assay; settings: Compound concentration 10.0 uM
[13] = molecular target: Tyrosine-protein kinase BTK (Homo sapiens) (UniProt Q06187); test: BTK (h) Upstate kinase activity assay; settings: Compound concentration 10.0 uM
[14] = molecular target: Tyrosine-protein kinase Blk (Mus musculus) (UniProt P16277); test: Blk (m) Upstate kinase activity assay; settings: Compound concentration 10.0 uM
[15] = molecular target: RAC-beta serine/threonine-protein kinase (Homo sapiens) (UniProt P31751); test: PKBbeta (h) Upstate kinase activity assay; settings: Compound concentration 10.0 uM
[16] = system: Epidermal growth factor receptor (Homo sapiens), P00533 [G719C]; settings: Compound concentration 100.0 nM
[17] = Homo sapiens, Lymphoma1-1331-IJ- JAl

Chain of RAC-beta serine/threonine-protein kinase (Homo sapiens) (P31751 whole entry): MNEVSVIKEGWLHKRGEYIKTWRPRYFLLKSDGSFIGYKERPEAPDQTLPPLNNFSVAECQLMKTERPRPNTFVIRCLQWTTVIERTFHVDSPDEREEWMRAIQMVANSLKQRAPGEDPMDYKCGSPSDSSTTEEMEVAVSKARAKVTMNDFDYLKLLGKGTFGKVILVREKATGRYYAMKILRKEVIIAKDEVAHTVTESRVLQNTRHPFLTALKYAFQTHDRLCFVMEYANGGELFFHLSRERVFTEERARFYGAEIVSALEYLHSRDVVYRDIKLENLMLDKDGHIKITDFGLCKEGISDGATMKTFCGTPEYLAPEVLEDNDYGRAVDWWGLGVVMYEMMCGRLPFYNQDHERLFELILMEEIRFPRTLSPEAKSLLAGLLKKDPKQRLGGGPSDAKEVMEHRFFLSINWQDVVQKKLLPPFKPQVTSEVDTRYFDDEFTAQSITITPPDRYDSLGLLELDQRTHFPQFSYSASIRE
Chain of Tyrosine-protein kinase BTK (Homo sapiens) (Q06187 whole entry): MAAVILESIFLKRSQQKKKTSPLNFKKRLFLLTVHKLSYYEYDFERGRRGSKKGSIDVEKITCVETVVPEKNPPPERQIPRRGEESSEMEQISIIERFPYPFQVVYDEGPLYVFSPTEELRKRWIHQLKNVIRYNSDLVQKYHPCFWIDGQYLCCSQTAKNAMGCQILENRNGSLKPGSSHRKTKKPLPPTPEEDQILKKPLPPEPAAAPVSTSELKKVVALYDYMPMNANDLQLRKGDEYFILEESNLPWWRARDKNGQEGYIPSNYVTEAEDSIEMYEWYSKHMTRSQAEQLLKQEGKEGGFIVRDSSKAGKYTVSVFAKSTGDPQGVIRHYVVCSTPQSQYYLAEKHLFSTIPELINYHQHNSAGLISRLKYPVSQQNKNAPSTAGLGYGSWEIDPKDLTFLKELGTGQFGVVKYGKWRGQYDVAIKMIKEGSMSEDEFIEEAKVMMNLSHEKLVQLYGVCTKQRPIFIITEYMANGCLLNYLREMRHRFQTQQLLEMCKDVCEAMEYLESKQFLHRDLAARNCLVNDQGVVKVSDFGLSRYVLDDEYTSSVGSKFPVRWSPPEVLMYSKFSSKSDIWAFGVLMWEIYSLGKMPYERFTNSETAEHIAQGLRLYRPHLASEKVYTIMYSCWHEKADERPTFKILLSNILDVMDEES
Chain of Casein kinase II subunit alpha (Homo sapiens) (P68400 whole entry, looked up): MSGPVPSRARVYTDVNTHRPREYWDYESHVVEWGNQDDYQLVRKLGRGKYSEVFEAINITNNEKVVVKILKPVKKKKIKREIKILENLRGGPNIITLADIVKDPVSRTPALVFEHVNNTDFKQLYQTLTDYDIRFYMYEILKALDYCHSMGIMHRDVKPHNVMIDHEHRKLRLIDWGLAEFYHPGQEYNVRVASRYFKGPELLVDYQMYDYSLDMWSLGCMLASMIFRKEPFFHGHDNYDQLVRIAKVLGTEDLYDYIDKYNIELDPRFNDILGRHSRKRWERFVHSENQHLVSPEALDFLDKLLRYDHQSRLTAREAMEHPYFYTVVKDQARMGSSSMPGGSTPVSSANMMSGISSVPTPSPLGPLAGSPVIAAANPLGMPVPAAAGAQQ
Chain of Tyrosine-protein kinase Fgr (Homo sapiens) (P09769 2-529 limits assumed): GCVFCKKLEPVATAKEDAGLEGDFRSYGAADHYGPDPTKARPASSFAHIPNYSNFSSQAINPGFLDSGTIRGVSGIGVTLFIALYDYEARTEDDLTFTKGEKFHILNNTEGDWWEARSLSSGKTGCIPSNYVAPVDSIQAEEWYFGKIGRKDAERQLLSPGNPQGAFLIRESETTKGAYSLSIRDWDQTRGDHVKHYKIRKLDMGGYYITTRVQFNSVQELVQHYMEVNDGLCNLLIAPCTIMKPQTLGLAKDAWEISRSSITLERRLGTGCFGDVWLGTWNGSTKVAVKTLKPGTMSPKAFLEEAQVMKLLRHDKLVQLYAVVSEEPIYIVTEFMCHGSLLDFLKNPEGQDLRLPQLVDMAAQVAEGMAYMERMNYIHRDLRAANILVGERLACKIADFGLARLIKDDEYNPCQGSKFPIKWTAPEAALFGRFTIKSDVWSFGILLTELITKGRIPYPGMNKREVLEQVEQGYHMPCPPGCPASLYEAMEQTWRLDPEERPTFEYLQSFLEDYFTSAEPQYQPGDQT
Chain of Protein kinase C beta type (Homo sapiens) (P05771 2-671 limits assumed): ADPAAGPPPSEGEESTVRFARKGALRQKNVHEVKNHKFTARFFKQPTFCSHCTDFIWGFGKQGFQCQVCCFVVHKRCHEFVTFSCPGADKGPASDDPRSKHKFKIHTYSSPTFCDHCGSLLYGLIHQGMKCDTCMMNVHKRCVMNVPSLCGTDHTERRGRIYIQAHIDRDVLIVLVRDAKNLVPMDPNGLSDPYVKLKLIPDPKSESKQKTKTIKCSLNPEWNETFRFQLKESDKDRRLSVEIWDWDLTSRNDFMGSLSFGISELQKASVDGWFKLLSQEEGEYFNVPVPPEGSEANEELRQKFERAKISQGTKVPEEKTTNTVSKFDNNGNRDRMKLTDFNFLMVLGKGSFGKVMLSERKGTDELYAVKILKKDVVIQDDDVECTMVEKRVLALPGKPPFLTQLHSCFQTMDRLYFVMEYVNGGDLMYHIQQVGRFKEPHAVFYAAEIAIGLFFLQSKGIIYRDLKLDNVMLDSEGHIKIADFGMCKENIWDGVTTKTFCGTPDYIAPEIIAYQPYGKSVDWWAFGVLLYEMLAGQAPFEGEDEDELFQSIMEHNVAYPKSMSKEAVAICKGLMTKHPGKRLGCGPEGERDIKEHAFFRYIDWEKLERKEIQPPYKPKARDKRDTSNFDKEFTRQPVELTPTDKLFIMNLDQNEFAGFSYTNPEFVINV
Chain of Tyrosine-protein kinase Blk (Mus musculus) (P16277 whole entry, looked up): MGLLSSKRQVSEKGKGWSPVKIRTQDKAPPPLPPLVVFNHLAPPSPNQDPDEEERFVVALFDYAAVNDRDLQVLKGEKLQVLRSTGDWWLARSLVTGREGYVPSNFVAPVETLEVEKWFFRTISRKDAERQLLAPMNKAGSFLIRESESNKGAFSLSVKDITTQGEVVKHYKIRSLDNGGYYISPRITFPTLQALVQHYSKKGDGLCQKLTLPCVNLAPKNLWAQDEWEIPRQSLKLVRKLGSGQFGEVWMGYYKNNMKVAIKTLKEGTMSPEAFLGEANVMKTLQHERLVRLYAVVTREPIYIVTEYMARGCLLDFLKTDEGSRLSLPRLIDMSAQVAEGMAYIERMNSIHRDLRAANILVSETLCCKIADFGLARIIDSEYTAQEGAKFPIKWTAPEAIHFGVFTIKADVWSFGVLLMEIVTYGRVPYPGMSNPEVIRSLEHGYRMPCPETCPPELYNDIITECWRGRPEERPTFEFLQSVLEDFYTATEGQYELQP
Chain of Macrophage colony-stimulating factor 1 receptor (Homo sapiens) (P07333 whole entry): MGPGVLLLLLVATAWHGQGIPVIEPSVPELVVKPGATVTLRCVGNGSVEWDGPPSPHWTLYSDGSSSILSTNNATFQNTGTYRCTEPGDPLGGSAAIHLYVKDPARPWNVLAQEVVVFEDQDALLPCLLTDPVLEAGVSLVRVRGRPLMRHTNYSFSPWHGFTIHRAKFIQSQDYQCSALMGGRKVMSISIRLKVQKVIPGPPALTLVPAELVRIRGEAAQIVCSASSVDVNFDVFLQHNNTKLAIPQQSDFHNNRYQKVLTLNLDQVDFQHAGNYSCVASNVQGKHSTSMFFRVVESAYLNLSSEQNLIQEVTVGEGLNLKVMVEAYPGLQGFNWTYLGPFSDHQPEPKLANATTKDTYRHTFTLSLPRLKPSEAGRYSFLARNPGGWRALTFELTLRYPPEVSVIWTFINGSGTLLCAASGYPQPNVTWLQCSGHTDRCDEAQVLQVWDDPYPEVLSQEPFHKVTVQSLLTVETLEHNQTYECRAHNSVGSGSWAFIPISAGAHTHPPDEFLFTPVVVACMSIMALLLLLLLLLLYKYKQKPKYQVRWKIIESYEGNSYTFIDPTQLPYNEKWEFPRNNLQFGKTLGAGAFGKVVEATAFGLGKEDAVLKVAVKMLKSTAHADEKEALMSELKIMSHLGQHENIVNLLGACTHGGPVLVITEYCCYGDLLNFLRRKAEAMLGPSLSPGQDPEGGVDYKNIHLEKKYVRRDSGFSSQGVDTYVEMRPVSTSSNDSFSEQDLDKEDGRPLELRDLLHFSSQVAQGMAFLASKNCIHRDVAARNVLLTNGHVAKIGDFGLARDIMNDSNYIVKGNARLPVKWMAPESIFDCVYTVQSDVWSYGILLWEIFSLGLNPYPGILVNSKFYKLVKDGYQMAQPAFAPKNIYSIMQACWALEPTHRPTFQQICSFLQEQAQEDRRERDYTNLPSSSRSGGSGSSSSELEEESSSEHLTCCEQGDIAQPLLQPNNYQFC
Chain of Serine/threonine-protein kinase PAK 2 (Homo sapiens) (Q13177 whole entry): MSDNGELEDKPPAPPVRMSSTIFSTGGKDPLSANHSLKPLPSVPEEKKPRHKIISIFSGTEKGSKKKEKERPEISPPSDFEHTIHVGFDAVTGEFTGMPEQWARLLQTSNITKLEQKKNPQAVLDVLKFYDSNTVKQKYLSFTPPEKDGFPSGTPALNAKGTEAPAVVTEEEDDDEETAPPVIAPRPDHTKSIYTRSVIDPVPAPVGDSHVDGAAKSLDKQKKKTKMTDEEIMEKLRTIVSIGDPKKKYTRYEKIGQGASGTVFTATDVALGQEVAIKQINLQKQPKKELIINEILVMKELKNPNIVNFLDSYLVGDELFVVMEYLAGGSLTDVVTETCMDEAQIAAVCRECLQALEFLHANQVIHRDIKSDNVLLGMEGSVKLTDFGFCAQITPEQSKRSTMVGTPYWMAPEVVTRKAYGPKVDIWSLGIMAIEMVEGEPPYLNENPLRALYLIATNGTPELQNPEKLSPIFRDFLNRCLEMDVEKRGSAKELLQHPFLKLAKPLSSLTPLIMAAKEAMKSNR

Work on `Cc1c[nH]c2nccc(Oc3c(F)cc(Nc4cc(Cl)nc(N)n4)cc3F)c12` [BAY-549] yielded an inhibition [1] of 27%, an inhibition [2] of 57% and an IC50 (U-937; Homo sapiens, U-937) of 14 µM. For the same compound, the TGI (U-937; Homo sapiens, U-937) was over 100 µM, the CC50 (U-937; Homo sapiens, U-937, read-out: LC50 (the source's name)) was over 100 µM and the “Mean % growth (n = 2) for 0.01 µM probe concentration” value (U-937; ± SEM 1 % growth) was 101%. The “Mean % growth (n = 2) for 0.1 µM probe concentration” value (U-937; ± SEM 2 % growth) was 103%, the “Mean % growth (n = 2) for 1.0 µM probe concentration” value (U-937; ± SEM 2 % growth) was 104% and the “Mean % growth (n = 2) for 100.0 µM probe concentration” value (U-937; ± SEM 5 % growth) was 17%. For the same compound, the “Mean % growth (n = 2) for 10.0 µM probe concentration” value (U-937; ± SEM 7 % growth) was 56%, the IC50 (A498; Homo sapiens, A498) was 7.8 µM and the TGI (A498; Homo sapiens, A498) was 70 µM. The CC50 (A498; Homo sapiens, A498, read-out: LC50 (the source's name)) was over 100 µM, the “Mean % growth (n = 2) for 0.01 µM probe concentration” value (A498; ± SEM 2 % growth) was 99% and the “Mean % growth (n = 2) for 10.0 µM probe concentration” value (A498; ± SEM 2 % growth) was 26%. For the same compound, the “Mean % growth (n = 2) for 100.0 µM probe concentration” value (A498; ± SEM 2 % growth) was -1%, the “Mean % growth (n = 2) for 0.1 µM probe concentration” value (A498; ± SEM 5 % growth) was 93% and the “Mean % growth (n = 2) for 1.0 µM probe concentration” value (A498; ± SEM 5 % growth) was 98%. It also gave an inhibition [3] of 64%, an inhibition [4] of 14% and an inhibition [5] of 9%. For the same compound, the inhibition [6] was 8%, the IC50 [7, 17] was over 100 µM and the TGI [7, 17] was over 100 µM. The CC50 ([7]; Homo sapiens, Lymphoma1-1331-IJ- JAl, read-out: LC50 (the source's name)) was over 100 µM, the “Mean % growth (n = 2) for 10.0 µM probe concentration” value ([7]; ± SEM 1 % growth) was 98% and the “Mean % growth (n = 2) for 0.1 µM probe concentration” value ([7]; ± SEM 5 % growth) was 103%. For the same compound, the “Mean % growth (n = 2) for 1.0 µM probe concentration” value ([7]; ± SEM 6 % growth) was 97%, the “Mean % growth (n = 2) for 100.0 µM probe concentration” value ([7]; ± SEM 7 % growth) was 80% and the “Mean % growth (n = 2) for 0.01 µM probe concentration” value ([7]; ± SEM 8 % growth) was 96%. For the same compound, the inhibition (Saccharomyces cerevisiae) was 44%, the “Mean % growth (n = 2) for 10.0 µM probe concentration” value (ACHN) was 27% and the IC50 (ACHN; Homo sapiens, ACHN) was 3.6 µM. The TGI (ACHN; Homo sapiens, ACHN) was 32 µM, the CC50 (ACHN; Homo sapiens, ACHN, read-out: LC50 (the source's name)) was over 100 µM and the “Mean % growth (n = 2) for 0.01 µM probe concentration” value (ACHN; ± SEM 1 % growth) was 103%. For the same compound, the “Mean % growth (n = 2) for 0.1 µM probe concentration” value (ACHN; ± SEM 2 % growth) was 106%, the “Mean % growth (n = 2) for 100.0 µM probe concentration” value (ACHN; ± SEM 4 % growth) was -25% and the “Mean % growth (n = 2) for 1.0 µM probe concentration” value (ACHN; ± SEM 10 % growth) was 60%. For the same compound, the inhibition (Rattus norvegicus) was 24.9%, the inhibition [8] was 6% and the “Mean % growth (n = 2) for 10.0 µM probe concentration” value (Hep 3B2) was 11%. For the same compound, the IC50 (Hep 3B2; Homo sapiens, Hep3B) was 1.3 µM, the TGI (Hep 3B2; Homo sapiens, Hep3B) was 45 µM and the CC50 (Hep 3B2; Homo sapiens, Hep3B, read-out: LC50 (the source's name)) was over 100 µM. The “Mean % growth (n = 2) for 0.1 µM probe concentration” value (Hep 3B2; ± SEM 3 % growth) was 82%, the “Mean % growth (n = 2) for 100.0 µM probe concentration” value (Hep 3B2; ± SEM 5 % growth) was -4% and the “Mean % growth (n = 2) for 1.0 µM probe concentration” value (Hep 3B2; ± SEM 6 % growth) was 51%. For the same compound, the “Mean % growth (n = 2) for 0.01 µM probe concentration” value (Hep 3B2; ± SEM 8 % growth) was 90%, the inhibition [9] was 76% and the inhibition [10] was 4%. For the same compound, the inhibition [11] was 2%, the inhibition [12] was 28% and the inhibition [13] was 1%. The inhibition [14] was 16% and the inhibition [15] was 85%.
`Cn1cc(Cl)c2c(Oc3c(F)cc(Nc4cc(Cl)nc(N)n4)cc3F)ccnc21` [BAY-4900] gave a residual activity [16] of 95%.
